Key:
[1] = tested on: mouse bone marrow cells; assay: Bone resorption assay on calcium phosphate coated plate; assay type: cell-based; settings: 6 days; for decrease in bone resorption ability: compared to differentiated osteoclasts (Ctrl) not treated, fluorescence absorbance
Experimental: Bone resorption ability was confirmed using a bone resorption assay kit (Cosmo Rio, CSR-BRA). 2.5×10^4 mouse bone marrow cells per well were put into a 48-well plate coated with calcium phosphate, followed by treating the cells with PMSA to perform differentiation for 6 days. After 6 days, a fluorescence absorbance was measured with the culture medium to confirm the bone absorption ability. Further, decomposition degree of calcium phosphate was photographed a microscope to confirm the bone resorption ability. […] In FIG. 4, BMMs refer to monocytes that are not differentiated osteoclasts.
Further, the bone resorption ability was confirmed using a bone resorption assay kit (Cosmo Bio, CSR-BRA). 2.5×10^4 mouse bone marrow cells per well were put into a 48-well plate coated with calcium phosphate, and were differentiated for 6 days while being treated with PSTP-3,5-Me. After 6 days, the fluorescence absorbance was measured with the culture medium to confirm the bone absorption ability.

[2] = tested on: NFATc1; assay: Intranuclear migration of transcription factors, western blotting of nuclear and cytoplasmic proteins; assay type: cell-based, mouse; settings: osteoclasts differentiated by RANKL for 3 days
Source text: In order to further confirm the inhibitory effect of the PMSA compound on osteoclast differentiation, the intranuclear migration of transcription factors NFATc1 and NF-kB and the expression degree of osteoclast-specific genes regulated by the transcription factors were investigated.
First, in order to confirm the intranuclear migration of transcription factors, osteoclasts differentiated by RANKL for 3 days were separated into nuclear protein and cytoplasmic protein using a NE-PER kit (ThermoFisher scientific 78833). Then, the expression of each of NFATc1 and NF-kB in each organelle was investigated through western blotting.

[3] = tested on: osteoclast-specific genes (CatK, NFATc1, DC-STAMP, OC-STAMP, Acp5); assay: qRT-PCR of osteoclast-specific gene mRNA expression; assay type: cell-based, mouse; settings: for mRNA expression of DC-STAMP / mRNA expression of OC-STAMP / mRNA expression of cathepsin K (CtsK): day 3 of differentiation, compared to control (Ctrl) without PMSA treatment
Experimental: Further, in order to confirm the expression degree of the osteoclast-specific gene, an mRNA expression level was measured by RT-PCR in the PMSA compound-treated cells. RNA was isolated from the cells differentiated into osteoclasts using an RNeasy kit (Qiagen, 74106), quantified using a spectrophotometer, followed by synthesizing 0.5 μg of RNA using reverse transcriptase (Takara, RR037 A). The synthesized cDNA was subjected to qRT-PCR with a QuantStudio 3 real-time PCR system (Applied Biosystems) using Power SYBR Green […] (Applied Biosystems).
All qPCR experiments were performed in duplicate, and 18S was used as a control. The ddCT method was used for data analysis.
In order to further confirm the inhibitory effect of PSTP-3,5-Me on osteoclast differentiation, the expression levels genes related to osteoclast production were investigated. mRNA expression of specific markers associated with osteoclast production was measured by RT-PCR in 0 or 6 μM PSTP-3,5-Me-treated cells.
For qRT-PCR, total RNA was extracted from BMMs using a TRIzol reagent (Thermo Fisher Scientific, MA, USA). Complementary DNA was synthesized from the total RNA using a Verso cDNA synthesis kit (Thermo Fisher Scientific, MA, USA). Thereafter, quantitative PCR (qPCR) was performed using the QuantStudio 3 real-time PCR system (Applied Biosystems, CA, USA) together with Power SYBR Green PCR Master Mm (Applied Biosystems, CA, USA).

[4] = Microsomal stability (M); assay type: in vitro ADME, mouse; settings: M of H/M; criterion >60%
Experimental: (§1) In order to analyze the drug metabolism of PMSA compound, ADME evaluation was requested to the Daegu-Gyeongbuk Advanced Medical industry Promotion Foundation (DGMIF). Metabolic stability of drugs using liver microsomes (microsomal stability), drug metabolism inhibitory ability by five CYP450 enzymes, plasma metabolism (plasma stability), plasma protein binding, and intestinal permeability of drugs (PAMPA, parallel artificial membrane permeability assay) were analyzed. […] Further, it was confirmed that the permeability resistance was excellent (see Table 3 below). On the other hand, for one of PMSA derivatives, that is, 2-(N-(3,5-dimethylphenyl)methylsulfinamido)-N-(2 (phenylthio)phenyl)propanamide (#25-D5), intestinal permeability of the drug (PAMPA) was not measured.

[5] = molecular target: T1, CYP1A2 (Homo sapiens, UniProt P05177); assay: CYP450 drug metabolism inhibition, 1A2; assay type: in vitro ADME; settings: criterion remaining activity >50%
T1 sequence (P05177 1-516): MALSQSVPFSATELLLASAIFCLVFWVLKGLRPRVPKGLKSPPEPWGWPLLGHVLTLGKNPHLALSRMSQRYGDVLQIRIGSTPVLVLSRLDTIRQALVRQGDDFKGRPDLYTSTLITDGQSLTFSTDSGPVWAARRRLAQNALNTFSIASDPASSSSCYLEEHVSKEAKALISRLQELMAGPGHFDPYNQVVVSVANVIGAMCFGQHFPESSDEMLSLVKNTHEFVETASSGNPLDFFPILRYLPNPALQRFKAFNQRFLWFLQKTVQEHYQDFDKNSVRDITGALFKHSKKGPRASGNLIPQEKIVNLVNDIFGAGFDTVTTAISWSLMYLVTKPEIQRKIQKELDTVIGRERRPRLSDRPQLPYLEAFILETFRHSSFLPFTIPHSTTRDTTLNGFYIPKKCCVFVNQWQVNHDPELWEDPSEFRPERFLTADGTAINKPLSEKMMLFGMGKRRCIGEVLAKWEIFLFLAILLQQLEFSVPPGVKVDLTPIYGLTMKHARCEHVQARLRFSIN
Experimental: as §1

[6] = molecular target: CYP3A4 (Homo sapiens, UniProt P08684); assay: CYP450 drug metabolism inhibition, 3A4; assay type: in vitro ADME; settings: for CYP 3A4 remaining activity: criterion remaining activity >50%
Experimental: as §1

[7] = tested on: plasma proteins; assay: Plasma protein binding (PPB); assay type: in vitro ADME, Human; settings: for binding with plasma proteins: conclusion from ADME evaluation
Experimental: as §1

[8] = PAMPA, parallel artificial membrane permeability assay; assay type: in vitro ADME; settings: for Papp: PAMPA, criterion >40, read-out: PAMPA (>40) Pe; for permeability resistance: conclusion from ADME evaluation
Experimental: as §1

[9] = ADME evaluation (DGMIF), overall conclusion on toxicity; assay type: in vitro ADME; settings: conclusion from ADME evaluation
Experimental: as §1

[10] = tested on: monocytes isolated from mouse bone marrow; assay: MTT assay for cytotoxicity evaluation (cell viability); assay type: cell-based; settings: 3-10 μM; 4 days
Experimental: 1×10^4 monocytes isolated from mouse bone marrow per well were put into a 96-well plate, and in order to assess cell viability, the cells were cultured for 4 days while being treated with PSTP-3,5-Me at different concentrations (3-10 μM). A cell viability assay reagent (DoGen, EZ-3000) was used for treatment with 1/10 of the volume of the medium, and the cells were cultured at 37° C. for 30 minutes and confirmed at […]. […] In other words, it is understood that no cytotoxicity appeared.

[11] = 6 μM compared to control (0 μM)

CYP3A4, sequence (P08684 whole entry): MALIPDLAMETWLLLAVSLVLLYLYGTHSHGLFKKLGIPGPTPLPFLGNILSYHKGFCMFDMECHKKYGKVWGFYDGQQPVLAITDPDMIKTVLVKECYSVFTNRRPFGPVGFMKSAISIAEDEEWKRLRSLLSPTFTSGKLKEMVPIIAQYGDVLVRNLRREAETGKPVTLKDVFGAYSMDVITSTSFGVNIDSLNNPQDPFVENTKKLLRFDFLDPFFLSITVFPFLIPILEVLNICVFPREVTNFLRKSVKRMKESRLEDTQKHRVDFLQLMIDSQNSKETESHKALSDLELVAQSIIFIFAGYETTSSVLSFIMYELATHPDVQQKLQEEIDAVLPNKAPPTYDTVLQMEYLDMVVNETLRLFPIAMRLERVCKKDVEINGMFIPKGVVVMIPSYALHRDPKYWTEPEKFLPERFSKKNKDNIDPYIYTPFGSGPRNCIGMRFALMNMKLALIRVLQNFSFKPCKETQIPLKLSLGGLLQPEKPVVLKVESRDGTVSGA

| Structure (SMILES) | decrease in bone resorption ability [1] | NFATc1 expression in the nucleus [2] | mRNA expression of DC-STAMP [3] | mRNA expression of OC-STAMP [3] | mRNA expression of cathepsin K (CtsK) [3] | Microsomal stability (>60%) M [4] | CYP 1A2 remaining activity [5] | CYP 3A4 remaining activity [6] | PPB Human (%, bound) [7] | binding with plasma proteins [7] | Papp [8] | permeability resistance [8] | toxicity [9] | also measured |
| --- | --- | --- | --- | --- | --- | --- | --- | --- | --- | --- | --- | --- | --- | --- |
| COc1ccc(Cl)cc1N(CC(=O)Nc1ccccc1Sc1ccccc1)S(C)(=O)=O [#25-D12, 2-(N-(5-chloro-2-methoxyphenyl)methylsulfonamido)-N-(2-(phenylthio)phenyl)acetamide] | 12.5% | less expressed in the nucleus | decrease | decrease | decrease | 21.7% | 77.9% | 26% | 99.8 %, bound | good | 49 ± 2 ×10⁻⁶ cm/s | excellent | low toxicity | – |
| CC(=O)c1cccc(N(CC(=O)Nc2ccccc2Sc2ccccc2)S(C)(=O)=O)c1 [#25, 2-(N-(3-acetylphenyl)methylsulfonamido)-N-(2-(phenylthio)phenyl)acetamide] | 16% | less expressed in the nucleus | decrease | decrease | decrease | 8.0% | 85.7% | 53.3% | 98.4 %, bound | good | 59.4 ± 1.6 ×10⁻⁶ cm/s | excellent | low toxicity | – |
| Cc1cc(C)cc(N([C@@H](C)C(=O)Nc2ccccc2Sc2ccccc2)S(C)(=O)=O)c1 [#25-D5, N^2-(3,5-dimethylphenyl)-N^2-(methylsulfonyl)-N-[2-(phenylthio)phenyl]alanineamide] | – | – | – | – | – | 14.7% | 85.1% | 13.4% | 99.8 %, bound | – | – | – | – | bone resorption region (optical microscope) [1]: not largely shown; bone resorption ability (fluorescence intensity) ([1]; RANKL, 0, 3 or 10 μM): significantly decreased in a dose-dependent manner; Acp5 expression level [3, 11]: slightly decreased; CatK expression degree [3, 11]: significantly decreased; DC-STAMP expression level [3, 11]: decreased on day 1; NFATc1 expression degree [3, 11]: significantly decreased; OC-STAMP expression level [3, 11]: decreased on day 1; cell viability [10]: did not affect cell viability; utility as a drug such as influence on activity of CYP3A4 ([6]; compared with other derivatives): not higher than other derivatives |

Source: US12691084B2, “Pharmaceutical composition for preventing or treating bone diseases” (INDUSTRY FOUNDATION OF CHONNAM NATIONAL UNIVERSITY, priority 2019, dated 2026)
